Data reported in publication PMC6130489, “Caffeic acid methyl and ethyl esters exert potential antidiabetic effects on glucose and lipid metabolism in cultured murine insulin-sensitive cells through mechanisms implicating activation of AMPK” (Pharmaceutical Biology, 2017).

Tests used:
PPAR-γ = assay: Western immunoblot PPAR-γ in 3T3-L1 adipocytes; format: cell-based, mouse; settings: 100 μM (Figure 4 legend)
Experimental: Insulin (100 nM) or aminoimidazole carboxamide ribonucleotide (AICAR; 1 mM) were added to some vehicle-treated wells 30 min prior to the end of the treatment and served as the positives controls. Protein content was assayed by the bicinchoninic acid method (Thermo Scientific Pierce Protein Research, Rockford, IL) standardized to bovine serum albumin. Western immunoblotting was performed as described elsewhere (Eid et al. [2010]). Membranes were incubated overnight with phospho-AMPK, phospho-Akt, GLUT4, GLUT1 and β-actin antibodies (1:1000 dilution, Cell Signalling Technology, Danvers, MA), or with PPAR-γ, SREBP-1 (1:200, Santa Cruze Biotechnology, Santa Cruz, CA), followed by incubation with HRP-coupled secondary antibody (1:10,000) for 1 h. Immunoreactive bands were visualized by enhanced chemiluminescence and quantified by the Scion Image program (Scion Corporation, Frederick, MD). Experiments were repeated on 3 different passages of cells, each passage containing all conditions in parallel.
Figure 4. CAME and CAEE inhibit C/EBP-β and PPAR-γ protein expression through mechanisms implicating AMPK pathway. Shown are representative blots of 3T3-adipocytes treated with the maximum nontoxic concentration (100 μM) of either CAME or CAEE. […] Data are expressed as C/EBP-β/β-actin (D), PPAR-γ/β-actin (E), phospho-Akt/pan-Akt (F) and phospho-AMPK/pan-AMPK (G). […]

3T3-L1 cells = assay: LDH cytotoxicity assay; format: cell-based; settings: 16-18 h, concentration inducing less than 10% cell death
Experimental: (§1) To determine nontoxic concentrations, cells were treated overnight (16–18 h) with 0.1% DMSO or different concentrations of either CAME or CAEE (12.5, 25, 50 and 100 μM). Cell culture media were collected separately and kept on ice. The cells were rinsed with PBS then lysed with 1% Triton X-100 in culture media for 10 min and the lysate were centrifuged at 4 °C for 10 min at 250g. Lactate dehydrogenase (LDH) activity in medium and in lysates was assayed with the LDH-Cytotoxicity Assay Kit II (BioVision, Mountain View, CA) according to the manufacturer's protocol (Smith et al. [2011]). LDH activity was expressed as the ratio of released LDH (medium) to total (medium + lysate) LDH activity.
(§2) Similar to our previous study in C2C12 cells, the maximum nontoxic concentrations of CAME and CAEE were determined using a LDH assay kit. Concentrations that induced less than 10% cell death were chosen as the maximum nontoxic concentrations (Table 1).

H4IIE cells = assay: LDH cytotoxicity assay; format: cell-based; settings: 16-18 h, concentration inducing less than 10% cell death
Experimental: as §1, §2

L6 GLUT4myc cells = assay: LDH cytotoxicity assay; format: cell-based; settings: 16-18 h, concentration inducing less than 10% cell death
Experimental: as §1, §2

Akt = assay: Western immunoblot phospho-Akt in H4IIE cells; format: cell-based, rat; settings: 50 μM, 18 h
Experimental: L6 cells myotubes, H4IIE cells and 3T3-L1 adipocytes were treated with either CAME, CAEE (50 μM each) or vehicle (DMSO) for 18 h. Insulin (100 nM) or aminoimidazole carboxamide ribonucleotide (AICAR; 1 mM) were added to some vehicle-treated wells 30 min prior to the end of the treatment and served as the positives controls. Protein content was assayed by the bicinchoninic acid method (Thermo Scientific Pierce Protein Research, Rockford, IL) standardized to bovine serum albumin. Western immunoblotting was performed as described elsewhere (Eid et al. [2010]). […] Immunoreactive bands were visualized by enhanced chemiluminescence and quantified by the Scion Image program (Scion Corporation, Frederick, MD). […]
Figure 2. […] (A) H4IIE hepatocytes were treated for 16 h with several concentrations (12.5, 25, 50 and100 μM) of either CAME or CAEE and G6Pase activity was determined colorimetrically using a commercial glucose assay kit as described under Materials and Methods. […] (D) Data are expressed as phospho-AMPK/pan-AMPK and are given as mean ± SEM from 3 experiments. *p < 0.05 indicates a significant difference, **(p < 0.01), ***(p < 0.001) from the vehicle control group.

| Structure (SMILES) | protein level of PPAR-γ (PPAR-γ) | Maximum non-toxic concentration (3T3-L1 cells) | Maximum non-toxic concentration (H4IIE cells) | Maximum non-toxic concentration (L6 GLUT4myc cells) | phosphorylation of Akt (Akt) |
| --- | --- | --- | --- | --- | --- |
| COC(=O)/C=C/c1ccc(O)c(O)c1 [CAME, CA methyl ester] | significantly reduced | 100 µM | 100 µM | 50 µM | did not increase |
| CCOC(=O)/C=C/c1ccc(O)c(O)c1 [CAEE, caffeic acid ethyl ester] | significantly reduced | 100 µM | 50 µM | 50 µM | did not increase |
